These results are taken from patent publication US12178830B2, “Compositions and methods for adoptive cell therapy for cancer” (MEMORIAL SLOAN KETTERING CANCER CENTER, priority 2017, dated 2024).

Data set [1] deals with SKOV-3 human ovarian cancer cell line. The experiment in a line: Cell viability, Skov-3. It counts as cell-based.
Data set [2] relates to Jurkat (T cell). The experiment in a line: CellTitre Glo in vitro cytotoxicity, Jurkat. Type of data set: cell-based, human.
Data set [3] concerns human epithelial CACO-2 cells. The experiment in a line: Cell permeability in CACO-2 cells. It counts as in vitro ADME. (Passage across Caco-2 layers is used to estimate intestinal permeability.)
For data set [4], the system named is SET2 cells. The experiment in a line: SET2 viability with prodrug plus recombinant enzyme or enzyme-containing supernatant. Type of data set: cell-based. The conditions noted are these: supernatant from CPG2-secreting HEK293t cells; control media did not. The method, then:
Recombinant CPG2 protein was initially synthesized, purified (FIGS. 18A and 18B), and incubated with increasing concentrations of prodrug in a glutamate release assay (FIG. 17C). Mass spectrometry was used to determine that the glutamate moiety was released from all of the glutamate prodrugs. The in vitro cytotoxicity of the prodrugs (FIG. 17B) were tested against the myeloid leukemia cell line SET2 using a CellTitre Glo® assay (Promega, Madison, WI).
SET2 cells were exposed to increasing concentrations of AMS (square) or glut-AMS with media alone (− control, triangle) or supernatant from CPG2-secreting HEK293t cells (circle). Cell viability was measured by CellTitre-Glo® luminescence assay.
Thus, antigen-dependent expansion of SEAKER T cells results in increased output of enzyme into the extracellular milieu.
To determine to respective enzyme output of the Beta-lactamase constructs relative to the previous CPG2 constructs, a quantitative sandwich ELISA was used to determine the concentration (ng/mL) of purified recombinant CPG2, and a quantitative nitrocefin assay was used to determine the concentration (ng/mL) of purified recombinant Beta-lactamase (FIG. 25A). Cell viability was measured by CellTitre-Glo® luminescence in the presence of prodrug (glut-AMS or ceph-AMS) and varying concentrations of purified recombinant CPG2 or Beta-lactamase (FIG. 25B).

Data set [5] deals with primary T-cells. The experiment in a line: CellTitre Glo in vitro cytotoxicity, primary T cells. Type of data set: cell-based, human.
Data set [6] deals with Raji. In words: Cell viability, Raji. It counts as cell-based, human.
For data set [7], the target named is T1, recombinant CPG2 (Pseudomonas sp., UniProt P06621, N222Q/N264Q/N272Q).
T1 construct: 6xHis (pET151 Directional TOPO leader) (N); made in house; host or cells: E. coli BL21 star
The experiment in a line: Glutamate release assay (Amplex Red) with recombinant CPG2. Type of data set: biochemical. The conditions noted are these: high concentrations (~10 μM), 37° C. The method, then:
FIG. 4 provides exemplary data showing activation of P-AMS (see FIG. 2) by recombinant CPG2 expressed and purified from E. coli. (A) Human Jurkat T cells were incubated with or without P-AMS in the presence of increasing concentration of purified CPG2. Cell viability was measured at 48 hours by CellTitre-Glo luminescence. (B) Recombinant CPG2 was exposed to various concentrations of glutamated AMS prodrug. Following incubation at 37° C. (0.5, 1, 2, and 4 hr.), the reaction was combined with Amplex® Red (converts free glutamate to a fluorescent species) and fluorescent emission was analyzed using a fluorescence multiwell plate scanner.
The CPG2-pET151 vector was transformed into BL21 star E. coli cells and induced with IPTG. Bacteria were homogenized in a French Press and purified by affinity chromatography over Ni++ beads using standard protocols. Imidazole was exchanged via PBS dialysis and protein was purified via desalting spin columns. The expressed and purified CPG2 was assayed to confirm that the active enzyme was a potent converter of glutamated prodrugs. […] Pro-AMS was activated by recombinant CPG2 in vitro. Human Jurkat T cells were incubated with or without P-AMS in the presence of increasing concentration of purified CPG2. Cell viability of the Jurkat cells was measured at 48 hours by CellTitre-Glo® luminescence. […]

For data set [8] the following is noted: mouse, in vivo.
For data set [9], the system named is panel of cancer cell lines and primary cell lines. The experiment in a line: In vitro cytotoxicity of drug/prodrug pairs against a panel of cell lines. Type of data set: cell-based.
For data set [10], the system named is Nalm6. In words: Cell viability, Nalm6. It counts as cell-based.
For data set [11], the target named is T2, endogenous glutamate carboxypeptidase expressed in human prostate cells (Homo sapiens, UniProt Q04609).
T2 construct: the endogenous glutamate carboxypeptidase expressed in human prostate cells; endogenous in cells; host or cells: LNCap cells
In words: Cell Titer-Glo viability of LNCap cells with AMS-glut prodrug (specificity for CPG2). Type of data set: cell-based. An excerpt:
This prodrug/drug combination was chosen for further development of the SEAKER systems.
A general note: Cellular ATP, detected with luciferase, serves as a proxy for viable cell number.

Data set [12] has as its system Jurkat T cells. In words: Jurkat viability with prodrug plus supernatant from CPG2-secreting HEK293T cells. It counts as cell-based, human. The conditions noted are these: increasing prodrug, 48 hours, supernatant from CPG2-secreting HEK293T cells. The method, then:
(§1) The in vitro cytotoxicity of AMS (structure 1c) and its prodrug variant (structure 1a) was tested against a variety of cell lines using a CellTitre Glo® assay (Promega, Madison, WI). […] Moreover, co-treatment with the prodrug and supernatant from CPG2-transfected HEK293T cells (see Example 3) led to cytotoxicity approaching that of the free drug (50 nM), consistent with CPG2-mediated cleavage of the prodrug to release the active parent drug. […] In contrast, AMS prodrug 1a was not activated by HEK293T cells expressing CPG intracellularly, which likely attributed to poor cell-penetrance of the prodrug due to the free bis-anionic gluatamate moiety.
Jurkat T cells were exposed to increasing concentrations of AMS (circle) or Pro-AMS with media alone (triangle) or supernatant from CPG2-secreting HEK293T cells (square). Cell viability was measured at 48 hours by CellTitre-Glo® luminescence assay.
Jurkat T cells were exposed to increasing concentrations of ZD2767P with media alone (triangle) or supernatant from CPG2-secreting HEK293T cells (square). Cell viability was measured at 48 hours by CellTitre-Glo® luminescence assay.

Data set [13] concerns myeloid leukemia cell line SET2. The experiment in a line: CellTitre Glo in vitro cytotoxicity, SET2. It counts as cell-based.
Data set [14] deals with HEK293T cells expressing CPG2. In words: HEK293T cells expressing CPG2 variants exposed to P-AMS. It counts as cell-based, human. The method, then:
as §1
Expression of CPG2 without a signal peptide (CPG2nosigp) was employed as a control. HEK293t cells stably transfected with CPG2 variants were exposed to P-AMS ([…]) for 48 hours and analyzed by bright field microscopy (FIG. 9A). Cells were exposed to varying concentrations of P-AMS and cell viability was analyzed at 48 hr post treatment (FIG. 9B).

The subject of data set [15] is HEK293T (kidney). In words: CellTitre Glo in vitro cytotoxicity, HEK293T. Type of data set: cell-based, human.
The subject of data set [16] is lung adenocarcinoma cells (HCC827). The experiment in a line: Co-culture of GFP+ 293tCPGTM cells with HCC827 plus erlotinib prodrug. Type of data set: cell-based. The settings on record: 293tCPGTM:HCC827 various ratios, 120 hr. Here is the method: FIG. 15 provides exemplary data showing the pro-drug activity of 293T cells expressing transmembrane CPG2. GFP+293t^CPGTM cells were co-cultured with lung adenocarcinoma cells (HCC827) at various ratios (293t^CPGTM:HCC827) and the erlotinib prodrug (p-erlotinib) was added. (A) Cells were analyzed at 120 hour by flow cytometry and % GFP was calculated. (B) Ratio of 293t^CPGTM cells to HCC827 cells was calculated for each cell ratio.
The retroviral constructs encoding the anti-CD19 CAR and transmembrane CPG2 enzyme described above were transduced into 293T cells to test the conversion activity of transmembrane CPG2 for an Erlotinib prodrug. GFP+293t^CPGTM cells were co-cultured with lung adenocarcinoma cells (HCC827) at various ratios (293t^CPGTM:HCC827) and the erlotinib prodrug (p-erlotinib) was added. Cells were analyzed at 120 hr. by flow cytometry (FIG. 15A) and the percentage of GFP cells and the ratio of 293t^CPGTM cells to HCC827 cells was calculated for each cell ratio (FIG. 15B).

Data set [17] relates to non-small cell lung carcinoma cell line PC9. In words: CellTitre-Glo viability, PC9. It counts as cell-based, human. The method, then: FIG. 14 provides exemplary data showing that Human T cells, but not cancer cells, are resistant to Erlotinib. (A) Human Jurkat T cells (red circle) and human non-small cell lung carcinoma cell lines PC9 (black square) and HCC827 (blue triangle) were treated with increasing concentrations of the receptor tyrosine kinase inhibitor Erlotinib. […] Cell viability was measured at 48 hours by CellTitre-Glo® luminescence.
FIG. 14 provides exemplary data showing that Human T cells, but not cancer cells, are resistant to Erlotinib. Human Jurkat T cells, primary T cells and human non-small cell lung carcinoma cell lines PC9 and HCC827 were treated with increasing concentrations of the receptor tyrosine kinase inhibitor Erlotinib. […] PC9 cells were incubated in the presence of Erlotinib, P-Erlotinib, or P-Erlotinib in the presence of purified CPG2. Cell viability was measured at 48 hours by CellTitre-Glo® luminescence.

pIC50: −log10 of the molar value. Some results are limits rather than exact numbers.

One may read the pIC50 as the IC50 on a negative log10 scale, so that one unit is a factor of ten.

`NS(=O)(=O)OC[C@H]1O[C@@H](n2cnc3c(NC(=O)N[C@@H](CCC(=O)O)C(=O)O)ncnc32)[C@H](O)[C@@H]1O` [P-AMS, ((9-((2R,3R,4S,5R)-3,4-dihydroxy-5-((sulfamoyloxy)methyl)tetrahydrofuran-2-yl)-9H-purin-6-yl)carbamoyl)-L-glutamic acid]: the pIC50 is less than 5.30 in data set [1] (Homo sapiens, SK-OV-3, read-out: IC50 (cell selectivity data)); less than 5.90 in data set [2] (Homo sapiens, Jurkat, read-out: IC50 (cell selectivity data)); less than 5.52 in [5] (Homo sapiens, T-cell, read-out: IC50 (cell selectivity data)); less than 5.52 in [6] (Homo sapiens, read-out: IC50 (cell selectivity data)); less than 6.00 in data set [9] (prodrug alone, cell lines tested); less than 5.52 in data set [10] (Homo sapiens, NALM-6, read-out: IC50 (cell selectivity data)). For the same molecule, the pIC50 in data set [13] (Homo sapiens, SET-2, read-out: IC50 (cell selectivity data)) was less than 5.52; in data set [15] (Homo sapiens, HEK-293T, read-out: IC50 (cell selectivity data)) it was less than 5.30. For the same molecule, the “Selective Index” value in data set [1] (Skov-3, prodrug vs AMS) is recorded as greater than 14.3; in [2] (Jurkat (T cell), prodrug vs AMS) it was greater than 162.3; in data set [5] (Human T cell, prodrug vs AMS), greater than 13.2; in [6] (prodrug vs AMS) it was greater than 170.5; in data set [10] (Nalm6, prodrug vs AMS), greater than 81.3; in data set [13] (Set2, prodrug vs AMS), greater than 87.2. Moreover, the “Selective Index” value in data set [15] (HEK293t, prodrug vs AMS) is on record as greater than 7.5. Besides, the cell permeability result in data set [3] is “no cell permeability”. Besides, the “SET2 cell viability with prodrug and CPG2 supernatant” value in data set [4] was “significant decrease in cell viability”. In data set [7], the “time in which the majority of the prodrug is converted” value was no more than 1 h. Further, in data set [8], the toxicity entry is “non-toxic”. In addition, the selective indices in data set [9] (all cell types tested) is on record as greater than 100. The SI selectivity index in data set [9] (prodrug vs free drug, up to) is greater than 56. For the same molecule, in [11], the “stability to endogenous glutamate carboxypeptidase” value is recorded as “remained stable”. In [12], the “cell viability with prodrug and CPG2 supernatant” value is reported as “significant decrease in cell viability”. Moreover, the “activation by cells expressing CPG intracellularly” value in data set [14] (HEK293T cells expressing CPG intracellularly) is on record as “not activated”. For the same molecule, the “cell death of HEK293T cells stably expressing secreted or transmembrane CPG2” value in [14] (P-AMS, 48 hr, CPG2nosigp control did not) is “significant cell death”.
Take `C#Cc1cccc(N(Cc2ccc(NC(=O)N[C@@H](CCC(=O)O)C(=O)O)cc2)c2ncnc3cc(OCCOC)c(OCCOC)cc23)c1` [P-Erlotinib, ((4-(((6,7-bis(2-methoxyethoxy)quinazolin-4-yl)(3-ethynylphenyl)amino)methyl)phenyl)carbamoyl)-L-glutamic acid]: in data set [16], the “killing in co-culture with transmembrane CPG2 cells” value is “kills the target cancer cell, but not the cell secreting the enzyme”. Besides, the “toxicity in PC9 cells” value in [17] (1 μM, without CPG2, 48 hours) was “no toxicity”. In addition, the “activity of cleaved prodrug in PC9 cells” value in data set [17] (in the presence of purified CPG2, 48 hours) is recorded as “comparable activity to the active drug”.
